The values that follow come from patent US20220387377A1, “(+)-CIS TETRAHYDROCANNABINOL ((+)-CIS-THC) FOR USE AS A MEDICAMENT” (GW Research Limited, priority 2019, published 2022).

Structures are written as SMILES. “Also recorded” adds a separate entry of the source.

Test [1] has as its system tonic hind limb convulsions induced by MES. The test can be described thus: Mouse supramaximal electroshock seizure (MES) test. In kind it is in vivo. Also noted: key to Significance of inhibition of tonic hindlimb seizures vs vehicle (Fisher's test): * p < 0.05; *** p < 0.001; ns: Ns: non significantly different from vehicle control (Fisher's test). How it is done:
The efficacy of (+)-cis-THC was tested in a mouse model of seizure, the maximal electroshock (MES) test.
Mice were administered MES (30 mA, rectangular current: 0.6 ms pulse width, 0.2 s duration, 50 Hz) via corneal electrodes connected to a constant current shock generator (Ugo Basile: type 7801) to reliably produce tonic hind limb convulsions. The number of tonic convulsions was recorded.
Sixteen mice were studied per group. The test was performed blind.
The test substance, (+)-cis-THC, was evaluated at 4 doses (10, 50, 100 and 150 mg/kg), administered i.p. 60 minutes before MES, and compared with a vehicle control group (administered under the same experimental conditions).
Valproate (positive control) was administered at 250 mg/kg i.p. 30 minutes before MES, was used as a reference substance and was compared with a vehicle group (administered i.p. 60 minutes before MES).
Data was analysed by comparing treated groups with the appropriate vehicle control using 2-tailed Fisher's Exact Probability tests (p<0.05 considered significant).

Test [2] has as its system withdrawal threshold on hot plate set at 52° C. Nature of the test: Mouse hotplate test (anti-nociception). In kind it is in vivo. How it is done: The efficacy of (+)-cis-THC was tested in a mouse model of pain, the hotplate test.
Mice underwent a minimum habituation period of 7 days prior to study commencement. Naïve mice were acclimatised to the procedure room in their home cages, with food and water available ad libitum.
Animals were treated with either treatment vehicle, (+)-cis-THC at 1,15, 50,100, 125 and 150 mg/kg at 10 ml/kg i.p. or Morphine 10 mg/kg or Morphine vehicle (Saline) at 10 ml/kg i.p.
Animals were placed onto a hot plate set at 52° C. and time to withdrawal threshold (first response of lifting, licking front or hind paws or trying to escape) was taken at 1-hour post treatment, or at 0.5 hour after the positive control.
Animals were culled by a schedule 1 method, immediately after the measurement.
Data were analysed by comparing withdrawal thresholds back to Vehicle treated group

For test [3] the following is noted: depending on the assay; cited from earlier work.
[4] abbreviates: 50 mg/kg I.P., 60 mins before MES.
Where [5] appears, read: 100 mg/kg I.P., 60 mins before MES.
Setting [6] is: 150 mg/kg I.P., 60 mins before MES.
Where [7] appears, read: 10 mg/kg I.P., 0.5 hour after treatment, hot plate 52° C.
The mark [8] stands for this setting: 250 mg/kg I.P., 30 mins before MES.

As to `CCCCCc1cc(O)c2c(c1)OC(C)(C)[C@@H]1CCC(C)=C[C@H]21` (relative stereo) [(+)-cis-THC, (+)-cis-delta-9-tetrahydrocannabinol], the “Significance of inhibition of tonic hindlimb seizures vs vehicle (Fisher's test)” value in test [1] (10 mg/kg I.P., 60 mins before MES) is recorded as “ns”; in test [1] (setting [4]) it was “ns”; in test [1] (setting [5]), “ns”; in test [1] (setting [6]), “* (* p < 0.05)”. Further, the “% change from vehicle in number of tonic clonic seizures after MES” value (“% change from vehicle in number” for short) is on record as 18.8% in test [1] (setting [4]), 25.0% in test [1] (setting [5]) and 37.5% in test [1] (setting [6]). The “Anti-convulsant effect in the MES model (overall)” value in test [1] (10, 50, 100 and 150 mg/kg i.p. 60 minutes before MES) is on record as “dose-related increase in the percentage change; also recorded: significant anti-convulsant effect”. Besides, the “Withdrawal threshold (sec) Mean +/− SEM” value in test [2] (1 mg/kg I.P., 1-hour post treatment, hot plate 52° C.) is 10.23 ± 0.64 s; in test [2] (15 mg/kg I.P., 1-hour post treatment, hot plate 52° C.), 9.96 ± 0.73 s; in test [2] (50 mg/kg I.P., 1-hour post treatment, hot plate 52° C.) it was 9.80 ± 0.80 s; in test [2] (100 mg/kg I.P., 1-hour post treatment, hot plate 52° C.), 10.67 ± 0.77 s; in test [2] (125 mg/kg I.P., 1-hour post treatment, hot plate 52° C.), 11.18 ± 1.18 s; in test [2] (150 mg/kg I.P., 1-hour post treatment, hot plate 52° C.) it was 11.68 ± 0.52 s. Moreover, the “Anti-nociceptive effect (withdrawal threshold compared to vehicle)” value in test [2] (all doses tested, 1 to 150 mg/kg i.p.) is “none of the doses tested produced a significant difference; also recorded: no anti-nociceptive effect”.
In the case of `CCCCCc1cc(O)c2c(c1)OC(C)(C)[C@@H]1CCC(C)=C[C@@H]21` [(−)-trans-THC, (−)-trans-delta-9-tetrahydrocannabinol], the “Potency relative to the (+)-trans-THC isomer” value in test [3] is 6-100 times.
As for `CN1CC[C@]23c4c5ccc(O)c4O[C@H]2[C@@H](O)C=C[C@H]3[C@H]1C5` [Morphine, reference compound], in test [2] (setting [7]), the “Significance of withdrawal threshold vs vehicle control” value is reported as “*** (*** p < 0.001 significant when compared to the corresponding vehicle control (Fisher's test).)” and the “Withdrawal threshold (sec) Mean +/− SEM” value turned out to be 17.48 ± 1.08 s. In addition, the “Withdrawal threshold (sec) Mean +/− SEM” value in test [2] (10 mg/kg I.P., 0.5 hour after treatment, hot plate 52° C., listed as morphine) is recorded as “significant increase in the withdrawal threshold”.
As to `CCCC(CCC)C(=O)O` [Valproate, reference compound], in test [1] (setting [8]), the “% change from vehicle in number” value came out at 100.0% and the “Significance of inhibition of tonic hindlimb seizures vs vehicle (Fisher's test)” value is “*** (*** p < 0.001)”. Besides, the “% change from vehicle in number” value in test [1] (250 mg/kg I.P., 30 mins before MES, listed as valproate) was 100%.
